# How the values were obtained:
# PC3 cells [1] = experiment: PC3 cell proliferation, 3D activity detection; assay type: cell-based, human; conditions: PC3, 3D culture, 14 days, read-out: 3D IC50 against PC3 cells
# Method: 3D activity detection: PC3 cells were seeded in a 96-well plate at 1200 cells/well, and 3D culture was performed. 14 days after the compound serially diluted was added, the growth of the cells was determined. The inhibition percentage and IC50 of the compound were calculated compared to the DMSO control group.
# PC3 cells [2] = experiment: PC3 cell proliferation, 2D activity detection; assay type: cell-based, human; conditions: PC3, 2D, 72 h, class symbol, read-out: 2D IC50 against PC3 cells
# Method: 2D activity detection: 1200 PC3 cells were seeded in a 96-well plate. After overnight adherence culture, the compound serially diluted was added. 72 h after addition, Cell Titer-Lumi (Beyotime C0068XL) was added to measure the ATP content in the cells. The growth of the cells was evaluated, and IC50 of the compounds against cell growth was calculated.
# FAK recombinant protein = FAK recombinant protein (Homo sapiens, UniProt Q05397); experiment: Inhibitory activity against FAK enzyme; assay type: biochemical; conditions: TK substrate, ATP
# Chain of FAK recombinant protein (Q05397 whole entry, species assumed): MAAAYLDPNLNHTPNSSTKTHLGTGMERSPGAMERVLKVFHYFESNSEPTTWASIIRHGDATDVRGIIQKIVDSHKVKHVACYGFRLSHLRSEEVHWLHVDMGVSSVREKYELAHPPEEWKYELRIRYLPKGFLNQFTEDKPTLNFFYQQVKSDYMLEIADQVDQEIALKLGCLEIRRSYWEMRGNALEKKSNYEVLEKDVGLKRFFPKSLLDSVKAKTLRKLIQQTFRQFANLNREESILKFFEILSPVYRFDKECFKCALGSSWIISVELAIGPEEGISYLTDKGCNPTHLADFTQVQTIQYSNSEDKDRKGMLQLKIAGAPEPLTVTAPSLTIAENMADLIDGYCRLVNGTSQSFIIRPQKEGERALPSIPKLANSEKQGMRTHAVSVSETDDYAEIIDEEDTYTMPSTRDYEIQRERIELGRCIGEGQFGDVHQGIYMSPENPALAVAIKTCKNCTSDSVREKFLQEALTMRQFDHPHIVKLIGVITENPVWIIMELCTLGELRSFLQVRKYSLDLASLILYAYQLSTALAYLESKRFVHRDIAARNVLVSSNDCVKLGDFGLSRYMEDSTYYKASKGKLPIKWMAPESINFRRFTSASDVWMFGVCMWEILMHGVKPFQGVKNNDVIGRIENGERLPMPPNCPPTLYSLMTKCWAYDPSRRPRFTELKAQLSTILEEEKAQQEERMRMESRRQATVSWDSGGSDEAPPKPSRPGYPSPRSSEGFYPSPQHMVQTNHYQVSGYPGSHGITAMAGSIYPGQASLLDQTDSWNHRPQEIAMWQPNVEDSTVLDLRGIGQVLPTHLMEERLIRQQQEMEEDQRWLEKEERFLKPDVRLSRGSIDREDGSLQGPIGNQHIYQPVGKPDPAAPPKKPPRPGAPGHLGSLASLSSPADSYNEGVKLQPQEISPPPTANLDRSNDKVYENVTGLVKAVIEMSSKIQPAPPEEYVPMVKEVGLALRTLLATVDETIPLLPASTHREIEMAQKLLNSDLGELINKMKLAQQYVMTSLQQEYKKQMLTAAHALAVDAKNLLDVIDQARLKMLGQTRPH
# Method: The compound serially diluted with DMSO and a FAK recombinant protein were mixed, and the mixture was left to stand at room temperature for 10 min. A biotin-labeled TK substrate (TK) and ATP were then added. […] After the mixture was incubated at room temperature for 1 h, the fluorescence intensity at 615 nm and 665 nm was measured. The ratio of the fluorescence intensity at 665 nm and 615 nm was calculated. The inhibition percentages and IC50 of the compounds were calculated compared to the DMSO control group.
# [3] = Homo sapiens, PC-3, 336 h, class symbol
Structure (SMILES),IC50 (PC3 cells [1]; [3]),"IC50 (PC3 cells [2]; Homo sapiens, PC-3)",IC50 (FAK recombinant protein),"IC50 (PC3 cells [1]; Homo sapiens, PC-3, 336 h, numeric (mean where marked *))",IC50 (PC3 cells [1]; class symbol),IC50 (PC3 cells [2])
"CNC(=O)c1ccccc1Oc1nc(Nc2cc(F)c(C(=O)NC3CC4(CCN(C)CC4)C3)cc2OC)ncc1C(F)(F)F [Compound 1, 2-fluoro-5-methoxy-N-(7-methyl-7-azaspiro[3.5]nonan-2-yl)-4-((4-(2-(methylcarbamoyl)phenoxy)-5-(trifluoromethyl)pyrimidin-2-yl)amino)benzamide]",5 to 50 nM,> 2000 nM,< 10 nM,,,
CNC(=O)c1ccccc1Oc1nc(Nc2cc(F)c(C(=O)NC3CCC4(CC3)CN(C)C4)cc2OC)ncc1C(F)(F)F [Compound 2],5 to 50 nM,> 2000 nM,< 10 nM,,,
CNC(=O)c1ccccc1Oc1nc(Nc2cc(F)c(C(=O)NC3CC4(CCN(C)CC4)CO3)cc2OC)ncc1C(F)(F)F (stereo not drawn) [Compound 3],5 to 50 nM,> 2000 nM,< 10 nM,,,
CNC(=O)c1ccccc1Oc1nc(Nc2cc(F)c(C(=O)NC3CC4(CCN(C)C4)CO3)cc2OC)ncc1C(F)(F)F (stereo not drawn) [Compound 5],5 to 50 nM,> 2000 nM,< 10 nM,,,
CNC(=O)c1ccccc1Oc1nc(Nc2cc(F)c(C(=O)NC3CCC4(CC3)CCN(C)CC4)cc2OC)ncc1C(F)(F)F [Compound 9],5 to 50 nM,> 2000 nM,10 to 50 nM,,,
COc1cc(C(=O)NC2CC3(CCN(C)CC3)C2)c(F)cc1Nc1ncc(C(F)(F)F)c(Oc2ccccc2N(C)S(C)(=O)=O)n1 [Compound 10],< 5 nM,> 2000 nM,< 10 nM,,,
COc1cc(C(=O)NC2CCC3(CCN(C)CC3)C2)c(F)cc1Nc1ncc(C(F)(F)F)c(Oc2ccccc2N(C)S(C)(=O)=O)n1 (stereo not drawn) [Compound 11],5 to 50 nM,> 2000 nM,< 10 nM,,,
COc1cc(C(=O)NC2CC3(CCN(C)CC3)CO2)c(F)cc1Nc1ncc(C(F)(F)F)c(Oc2ccccc2N(C)S(C)(=O)=O)n1 (stereo not drawn) [Compound 12],< 5 nM,> 2000 nM,< 10 nM,,,
COc1cc(C(=O)NC2CCC3(CCN(C)C3)C2)c(F)cc1Nc1ncc(C(F)(F)F)c(Oc2ccccc2N(C)S(C)(=O)=O)n1 (stereo not drawn) [Compound 13],5 to 50 nM,> 2000 nM,< 10 nM,,,
COc1cc(C(=O)NC2CC3(CCN(C)C3)CO2)c(F)cc1Nc1ncc(C(F)(F)F)c(Oc2ccccc2N(C)S(C)(=O)=O)n1 (stereo not drawn) [Compound 14],< 5 nM,> 2000 nM,< 10 nM,,,
COc1cc(C(=O)NC2COC3(CCN(C)C3)C2)c(F)cc1Nc1ncc(C(F)(F)F)c(Oc2ccccc2N(C)S(C)(=O)=O)n1 (stereo not drawn) [Compound 15],< 5 nM,> 2000 nM,< 10 nM,,,
COc1cc(C(=O)NC2CCC3(CC2)CCN(C)CC3)c(F)cc1Nc1ncc(C(F)(F)F)c(Oc2ccccc2N(C)S(C)(=O)=O)n1 [Compound 16],5 to 50 nM,> 2000 nM,10 to 50 nM,,,
COc1cc(C(=O)NC2CCC3(CC2)CN(C)C3)c(F)cc1Nc1ncc(C(F)(F)F)c(Oc2ccccc2N(C)S(C)(=O)=O)n1 [Compound 17],5 to 50 nM,> 2000 nM,< 10 nM,,,
COc1cc(C(=O)NC2CCC3(CC2)CCN3C)c(F)cc1Nc1ncc(C(F)(F)F)c(Oc2ccccc2N(C)S(C)(=O)=O)n1 (stereo not drawn) [Compound 18],5 to 50 nM,> 2000 nM,< 10 nM,,,
COc1cc(C(=O)NC2CCC3(CC2)CCN3C)c(F)cc1Nc1ncc(C(F)(F)F)c(Oc2cccc3c2C(=O)N(C)C3)n1 (stereo not drawn) [Compound 22],< 5 nM,> 2000 nM,< 10 nM,,,
COc1cc(C(=O)NC2COC3(CCN(C)CC3)C2)c(F)cc1Nc1ncc(C(F)(F)F)c(Oc2cccc3c2C(=O)N(C)C3)n1 (stereo not drawn) [Compound 23],,> 2000 nM,< 10 nM,3.71 nM,,
COc1cc(C(=O)NC2CCC3(CCN(C)CC3)C2)c(F)cc1Nc1ncc(C(F)(F)F)c(Oc2cccc3c2C(=O)N(C)C3)n1 (stereo not drawn) [Compound 24],5 to 50 nM,> 2000 nM,< 10 nM,,,
COc1cc(C(=O)NC2CCC3(CC2)CCN(C)C3)c(F)cc1Nc1ncc(C(F)(F)F)c(Oc2cccc3c2C(=O)N(C)C3)n1 (stereo not drawn) [Compound 25],< 5 nM,> 2000 nM,< 10 nM,,,
COc1cc(C(=O)NC2CCC3(CC2)CCN(C)CC3)c(F)cc1Nc1ncc(C(F)(F)F)c(Oc2cccc3c2C(=O)N(C)C3)n1 [Compound 26],5 to 50 nM,> 2000 nM,< 10 nM,,,
COc1cc(C(=O)NC2CCC3(CCN(C)C3)C2)c(F)cc1Nc1ncc(C(F)(F)F)c(Oc2cccc3c2C(=O)N(C)C3)n1 (stereo not drawn) [Compound 27],5 to 50 nM,> 2000 nM,< 10 nM,,,

Structure (SMILES),IC50 (PC3 cells [1]; [3]),"IC50 (PC3 cells [2]; Homo sapiens, PC-3)",IC50 (FAK recombinant protein),"IC50 (PC3 cells [1]; Homo sapiens, PC-3, 336 h, numeric (mean where marked *))",IC50 (PC3 cells [1]; class symbol),IC50 (PC3 cells [2])
COc1cc(C(=O)NC2CCN3CCOC3C2)c(F)cc1Nc1ncc(C(F)(F)F)c(Oc2cccc3c2C(=O)N(C)C3)n1 (stereo not drawn) [Compound 30],5 to 50 nM,> 2000 nM,< 10 nM,,,
COc1cc(C(=O)NC2CCN3CCN=C3C2)c(F)cc1Nc1ncc(C(F)(F)F)c(Oc2cccc3c2C(=O)N(C)C3)n1 (stereo not drawn) [Compound 31],5 to 50 nM,> 2000 nM,< 10 nM,,,
COc1cc(C(=O)NC2CCn3ccnc3C2)c(F)cc1Nc1ncc(C(F)(F)F)c(Oc2cccc3c2C(=O)N(C)C3)n1 (stereo not drawn) [Compound 32],5 to 50 nM,> 2000 nM,< 10 nM,,,
COc1cc(C(=O)NC2CCn3cnnc3C2)c(F)cc1Nc1ncc(C(F)(F)F)c(Oc2cccc3c2C(=O)N(C)C3)n1 (stereo not drawn) [Compound 33],5 to 50 nM,> 2000 nM,< 10 nM,,,
COc1cc(C(=O)N2CCC3(CCN(C)CC3)CC2)c(F)cc1Nc1ncc(C(F)(F)F)c(Oc2cccc3c2C(=O)N(C)C3)n1 [Compound 35],> 50 nM,> 2000 nM,> 50 nM,,,
COc1cc(C(=O)N2CCC3(CCN(C)C3)C2)c(F)cc1Nc1ncc(C(F)(F)F)c(Oc2cccc3c2C(=O)N(C)C3)n1 (stereo not drawn) [Compound 36],5 to 50 nM,> 2000 nM,< 10 nM,,,
COc1cc(C(=O)N2CCC3(CCN(C)C3)C2)c(F)cc1Nc1ncc(C(F)(F)F)c(Oc2cccc3c2C(=O)N(C)C3)n1 (stereo not drawn) [Compound 37],,,< 10 nM,,5 to 50 nM,> 2000 nM
COc1cc(C(=O)N2CCC23CCN(C)CC3)c(F)cc1Nc1ncc(C(F)(F)F)c(Oc2cccc3c2C(=O)N(C)C3)n1 [Compound 38],5 to 50 nM,> 2000 nM,10 to 50 nM,,,
COc1cc(C(=O)N2CCC3(CCN(C)CC3)C2)c(F)cc1Nc1ncc(C(F)(F)F)c(Oc2cccc3c2C(=O)N(C)C3)n1 [Compound 39],5 to 50 nM,> 2000 nM,< 10 nM,,,
COc1cc(C(=O)N2CCC3(CCCN(C)C3)C2)c(F)cc1Nc1ncc(C(F)(F)F)c(Oc2cccc3c2C(=O)N(C)C3)n1 (stereo not drawn) [Compound 40],5 to 50 nM,> 2000 nM,< 10 nM,,,
COc1cc(C(=O)NC2CC3(CCNCC3)C2)c(F)cc1Nc1ncc(C(F)(F)F)c(Oc2cccc3c2C(=O)N(C)C3)n1 [Compound 41],5 to 50 nM,> 2000 nM,10 to 50 nM,,,
CCN1CCC2(CC1)CC(NC(=O)c1cc(OC)c(Nc3ncc(C(F)(F)F)c(Oc4cccc5c4C(=O)N(C)C5)n3)cc1F)C2 [Compound 42],< 5 nM,> 2000 nM,< 10 nM,,,
COc1cc(C(=O)NC2CC3(CCN(C)CC3)C2)c(Cl)cc1Nc1ncc(C(F)(F)F)c(Oc2cccc3c2C(=O)N(C)C3)n1 [Compound 43],< 5 nM,> 2000 nM,< 10 nM,,,
COc1cc(C(=O)NC2CCC3(CC2)CN(C)C3)c(Cl)cc1Nc1ncc(C(F)(F)F)c(Oc2cccc3c2C(=O)N(C)C3)n1 [Compound 44],5 to 50 nM,> 2000 nM,< 10 nM,,,
COc1cc(C(=O)NC2CC3(CCN(C)CC3)C2)ccc1Nc1ncc(C(F)(F)F)c(Oc2cccc3c2C(=O)N(C)C3)n1 [Compound 45],< 5 nM,> 2000 nM,< 10 nM,,,
COc1cc(C(=O)NC2CCC3(CC2)CN(C)C3)ccc1Nc1ncc(C(F)(F)F)c(Oc2cccc3c2C(=O)N(C)C3)n1 [Compound 46],5 to 50 nM,> 2000 nM,< 10 nM,,,
[2H]C([2H])([2H])N1CCC2(CC1)CC(NC(=O)c1cc(OC)c(Nc3ncc(C(F)(F)F)c(Oc4cccc5c4C(=O)N(C)C5)n3)cc1F)C2 [Compound 47],< 5 nM,> 2000 nM,< 10 nM,,,
[2H]C([2H])([2H])N1CC2(CCC(NC(=O)c3cc(OC)c(Nc4ncc(C(F)(F)F)c(Oc5cccc6c5C(=O)N(C)C6)n4)cc3F)CC2)C1 [Compound 48],5 to 50 nM,> 2000 nM,< 10 nM,,,
"COc1cc(C(=O)NC2CC3(CCN(C)CC3)C2)c(F)cc1Nc1ncc(C(F)(F)F)c(Cc2cccc3c2C(=O)N(C)C3)n1 [Compound 49, 2-fluoro-5-methoxy-4-((4-((2-methyl-3-oxoisoindolin-4-yl)methyl)-5-(trifluoromethyl)pyrimidin-2-yl)amino)-N-(7-methyl-7-azaspiro[3.5]nonan-2-yl)benzamide]",< 5 nM,> 2000 nM,< 10 nM,,,
